ChEMBL document CHEMBL2074178, “Passive permeability and P-glycoprotein-mediated efflux differentiate central nervous system (CNS) and non-CNS marketed drugs” (J Pharmacol Exp Ther, 2002)

Key:
[1] = molecular target: T1, ATP-dependent translocase ABCB1 (Homo sapiens, UniProt P08183); experiment: TP_TRANSPORTER: increase in Calcein-AM intracellular accumulation (Calcein-AM: ? uM, Nitrazepam: 100 uM) in MDR1-expressing MDCKII cells; type: functional, cell-based; conditions: dog, mdck-ii
[2] = molecular target: T1, ATP-dependent translocase ABCB1; experiment: TP_TRANSPORTER: transepithelial transport (basal to apical) in MDR1-expressing MDCKII cells; type: functional, cell-based; conditions: dog, mdck-ii
[3] = molecular target: T1, ATP-dependent translocase ABCB1; experiment: TP_TRANSPORTER: increase in Calcein-AM intracellular accumulation (Calcein-AM: ? uM, Selegiline: 100 uM) in MDR1-expressing MDCKII cells; type: functional, cell-based; conditions: dog, mdck-ii
[4] = molecular target: T2, MDR1 (P-glycoprotein, ABCB1) (Homo sapiens, UniProt P08183); experiment: TP_TRANSPORTER: increase in Calcein-AM intracellular accumulation (Calcein-AM: ? uM, Clomipramine: 100 uM) in MDR1-expressing MDCKII cells; type: functional, cell-based, MDCK-II; conditions: dog, probe Calcein-AM
T2 sequence (P08183 whole entry): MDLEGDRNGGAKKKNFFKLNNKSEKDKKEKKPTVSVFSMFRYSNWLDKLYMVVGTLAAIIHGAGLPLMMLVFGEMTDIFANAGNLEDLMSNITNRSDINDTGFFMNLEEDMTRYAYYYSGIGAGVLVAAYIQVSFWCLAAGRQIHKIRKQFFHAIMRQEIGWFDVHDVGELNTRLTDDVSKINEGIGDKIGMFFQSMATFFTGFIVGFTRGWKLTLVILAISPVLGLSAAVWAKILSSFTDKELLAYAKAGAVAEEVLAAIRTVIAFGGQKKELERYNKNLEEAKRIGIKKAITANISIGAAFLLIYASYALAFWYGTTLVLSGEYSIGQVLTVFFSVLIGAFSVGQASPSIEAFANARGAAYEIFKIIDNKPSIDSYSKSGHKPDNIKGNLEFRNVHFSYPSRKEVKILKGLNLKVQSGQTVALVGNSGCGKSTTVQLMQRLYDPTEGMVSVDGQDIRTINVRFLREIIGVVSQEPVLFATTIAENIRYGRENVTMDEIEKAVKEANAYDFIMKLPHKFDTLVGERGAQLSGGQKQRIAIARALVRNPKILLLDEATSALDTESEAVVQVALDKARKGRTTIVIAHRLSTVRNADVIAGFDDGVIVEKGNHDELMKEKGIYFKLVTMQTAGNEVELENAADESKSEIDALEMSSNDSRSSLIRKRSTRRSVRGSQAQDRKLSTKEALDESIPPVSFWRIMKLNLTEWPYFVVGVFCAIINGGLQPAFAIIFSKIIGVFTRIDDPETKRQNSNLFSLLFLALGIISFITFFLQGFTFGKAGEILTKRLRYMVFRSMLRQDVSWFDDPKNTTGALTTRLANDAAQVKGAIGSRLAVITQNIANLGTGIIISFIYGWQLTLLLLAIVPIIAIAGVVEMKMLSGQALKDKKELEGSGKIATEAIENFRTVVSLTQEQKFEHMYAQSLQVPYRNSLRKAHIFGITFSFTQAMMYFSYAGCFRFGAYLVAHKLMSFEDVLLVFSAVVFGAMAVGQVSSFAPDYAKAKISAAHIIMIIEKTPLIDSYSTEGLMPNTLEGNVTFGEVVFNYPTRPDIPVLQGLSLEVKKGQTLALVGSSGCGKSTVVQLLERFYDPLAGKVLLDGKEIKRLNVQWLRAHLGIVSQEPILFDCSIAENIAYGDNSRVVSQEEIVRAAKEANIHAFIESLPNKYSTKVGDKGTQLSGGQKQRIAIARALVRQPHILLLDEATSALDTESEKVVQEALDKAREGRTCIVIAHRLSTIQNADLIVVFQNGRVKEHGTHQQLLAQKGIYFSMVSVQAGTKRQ

[5] = molecular target: T1, ATP-dependent translocase ABCB1; experiment: TP_TRANSPORTER: increase in Calcein-AM intracellular accumulation (Calcein-AM: ? uM, Ketamine: 100 uM) in MDR1-expressing MDCKII cells; type: functional, cell-based; conditions: dog, mdck-ii
[6] = molecular target: T2, MDR1 (P-glycoprotein, ABCB1); experiment: TP_TRANSPORTER: increase in Calcein-AM intracellular accumulation (Calcein-AM: ? uM, Maprotiline: 100 uM) in MDR1-expressing MDCKII cells; conditions: dog, probe Calcein-AM
[7] = molecular target: T2, MDR1 (P-glycoprotein, ABCB1); experiment: TP_TRANSPORTER: increase in Calcein-AM intracellular accumulation (Calcein-AM: ? uM, Buspirone: 100 uM) in MDR1-expressing MDCKII cells; type: functional, cell-based, MDCK-II; conditions: dog, probe Calcein-AM
[8] = molecular target: T2, MDR1 (P-glycoprotein, ABCB1); experiment: TP_TRANSPORTER: increase in Calcein-AM intracellular accumulation (Calcein-AM: ? uM, Amitriptyline: 100 uM) in MDR1-expressing MDCKII cells; type: functional, cell-based, MDCK-II; conditions: dog, probe Calcein-AM
[9] = molecular target: T1, ATP-dependent translocase ABCB1; experiment: TP_TRANSPORTER: increase in Calcein-AM intracellular accumulation (Calcein-AM: ? uM, Zimeldine: 100 uM) in MDR1-expressing MDCKII cells; type: functional, cell-based; conditions: dog, mdck-ii
[10] = molecular target: T1, ATP-dependent translocase ABCB1; experiment: TP_TRANSPORTER: increase in Calcein-AM intracellular accumulation (Calcein-AM: ? uM, Sumatriptan: 100 uM) in MDR1-expressing MDCKII cells; type: functional, cell-based; conditions: dog, mdck-ii
[11] = molecular target: T2, MDR1 (P-glycoprotein, ABCB1); experiment: TP_TRANSPORTER: increase in Calcein-AM intracellular accumulation (Calcein-AM: ? uM, Desipramine: 100 uM) in MDR1-expressing MDCKII cells; type: functional, cell-based, MDCK-II; conditions: dog, probe Calcein-AM
[12] = molecular target: T1, ATP-dependent translocase ABCB1; experiment: TP_TRANSPORTER: increase in Calcein-AM intracellular accumulation (Calcein-AM: ? uM, Imipramine: 100 uM) in MDR1-expressing MDCKII cells; type: functional, cell-based; conditions: dog, mdck-ii
[13] = molecular target: T1, ATP-dependent translocase ABCB1; experiment: TP_TRANSPORTER: increase in Calcein-AM intracellular accumulation (Calcein-AM: ? uM, Flumazenil: 100 uM) in MDR1-expressing MDCKII cells; type: functional, cell-based; conditions: dog, mdck-ii
[14] = molecular target: T2, MDR1 (P-glycoprotein, ABCB1); experiment: TP_TRANSPORTER: increase in Calcein-AM intracellular accumulation (Calcein-AM: ? uM, Metergoline: 100 uM) in MDR1-expressing MDCKII cells; type: functional, cell-based, MDCK-II; conditions: dog, probe Calcein-AM
[15] = molecular target: T2, MDR1 (P-glycoprotein, ABCB1); experiment: TP_TRANSPORTER: increase in Calcein-AM intracellular accumulation (Calcein-AM: ? uM, […]: 100 uM) in MDR1-expressing MDCKII cells; type: functional, cell-based, MDCK-II; conditions: dog, probe Calcein-AM
[16] = molecular target: T1, ATP-dependent translocase ABCB1; experiment: TP_TRANSPORTER: increase in Calcein-AM intracellular accumulation (Calcein-AM: ? uM, Biperiden: 100 uM) in MDR1-expressing MDCKII cells; type: functional, cell-based; conditions: dog, mdck-ii
[17] = molecular target: T2, MDR1 (P-glycoprotein, ABCB1); experiment: TP_TRANSPORTER: increase in Calcein-AM intracellular accumulation (Calcein-AM: ? uM, Doxepin: 100 uM) in MDR1-expressing MDCKII cells; type: functional, cell-based, MDCK-II; conditions: dog, probe Calcein-AM
[18] = molecular target: T1, ATP-dependent translocase ABCB1; experiment: TP_TRANSPORTER: increase in Calcein-AM intracellular accumulation (Calcein-AM: ? uM, Carbamazepine: 100 uM) in MDR1-expressing MDCKII cells; type: functional, cell-based; conditions: dog, mdck-ii
[19] = molecular target: T1, ATP-dependent translocase ABCB1; experiment: TP_TRANSPORTER: increase in Calcein-AM intracellular accumulation (Calcein-AM: ? uM, Naltrexone: 100 uM) in MDR1-expressing MDCKII cells; type: functional, cell-based; conditions: dog, mdck-ii
[20] = molecular target: T2, MDR1 (P-glycoprotein, ABCB1); experiment: TP_TRANSPORTER: increase in Calcein-AM intracellular accumulation (Calcein-AM: ? uM, Chlorprothixene: 100 uM) in MDR1-expressing MDCKII cells; type: functional, cell-based, MDCK-II; conditions: dog, probe Calcein-AM
[21] = molecular target: T1, ATP-dependent translocase ABCB1; experiment: TP_TRANSPORTER: increase in Calcein-AM intracellular accumulation (Calcein-AM: ? uM, Nordazepam: 100 uM) in MDR1-expressing MDCKII cells; type: functional, cell-based; conditions: dog, mdck-ii
[22] = molecular target: T2, MDR1 (P-glycoprotein, ABCB1); experiment: TP_TRANSPORTER: increase in Calcein-AM intracellular accumulation (Calcein-AM: ? uM, Fluvoxamine: 100 uM) in MDR1-expressing MDCKII cells; type: functional, cell-based, MDCK-II; conditions: dog, probe Calcein-AM
[23] = molecular target: T2, MDR1 (P-glycoprotein, ABCB1); experiment: TP_TRANSPORTER: increase in Calcein-AM intracellular accumulation (Calcein-AM: ? uM, Haloperidol: 100 uM) in MDR1-expressing MDCKII cells; type: functional, cell-based, MDCK-II; conditions: dog, probe Calcein-AM
[24] = molecular target: T1, ATP-dependent translocase ABCB1; experiment: TP_TRANSPORTER: increase in Calcein-AM intracellular accumulation (Calcein-AM: ? uM, Meprobamate: 100 uM) in MDR1-expressing MDCKII cells; type: functional, cell-based; conditions: dog, mdck-ii

T1 sequence (P08183 whole entry): as above

O=C1CN=C(c2ccccc2)c2cc([N+](=O)[O-])ccc2N1 [NITRAZEPAM]
Activity [1]: is not an inhibitor [-]
Activity [2]: is not a substrate [-]

C#CCN(C)[C@H](C)Cc1ccccc1 [SELEGILINE]
Activity [3]: is not an inhibitor [-]
Activity [2]: is not a substrate [-]

CN(C)CCCN1c2ccccc2CCc2ccc(Cl)cc21 [CLOMIPRAMINE]
inhibition at 100 µM [4]: 48.2%
Activity [2]: is not a substrate [-]

CNC1(c2ccccc2Cl)CCCCC1=O (stereo not given) [KETAMINE]
Activity [2]: is not a substrate [-]
Activity [5]: is not an inhibitor [-]

Nc1c2c(nc3ccccc13)CCCC2 [TACRINE]
Activity [2]: is not a substrate [-]

CNCCCC12CCC(c3ccccc31)c1ccccc12 [MAPROTILINE]
Activity [2]: is not a substrate [-]
inhibition at 100 µM [6]: 36.7%

O=C1CC2(CCCC2)CC(=O)N1CCCCN1CCN(c2ncccn2)CC1 [BUSPIRONE]
inhibition at 100 µM [7]: 24.1%
Activity [2]: is not a substrate [-]

CN(C)CCC=C1c2ccccc2CCc2ccccc21 [AMITRIPTYLINE]
inhibition at 100 µM [8]: 25.5%
Activity [2]: is not a substrate [-]

CN(C)C/C=C(/c1ccc(Br)cc1)c1cccnc1 [ZIMELDINE]
Activity [2]: is not a substrate [-]
Activity [9]: is not an inhibitor [-]

CNS(=O)(=O)Cc1ccc2[nH]cc(CCN(C)C)c2c1
Activity [10]: is not an inhibitor [-]
Activity [2]: is not a substrate [-]

CNCCCN1c2ccccc2CCc2ccccc21 [DESIPRAMINE]
inhibition at 100 µM [11]: 12.8%
Activity [2]: is not a substrate [-]

CN(C)CCCN1c2ccccc2CCc2ccccc21 [IMIPRAMINE]
Activity [12]: is not an inhibitor [-]
Activity [2]: is not a substrate [-]

Cc1ncc2n1-c1ccc(Cl)cc1C(c1ccccc1F)=NC2 [MIDAZOLAM]
Activity [2]: is not a substrate [-]

CCOC(=O)c1ncn2c1CN(C)C(=O)c1cc(F)ccc1-2 [FLUMAZENIL]
Activity [13]: is not an inhibitor [-]
Activity [2]: is not a substrate [-]

CN1C[C@H](CNC(=O)OCc2ccccc2)C[C@@H]2c3cccc4c3c(cn4C)C[C@H]21 [METERGOLINE]
Activity [2]: is not a substrate [-]
inhibition at 100 µM [14]: 84.4%

CC(C)C[C@H]1C(=O)N2CCC[C@H]2[C@]2(O)O[C@](NC(=O)[C@@H]3C=C4c5cccc6[nH]c(Br)c(c56)C[C@H]4N(C)C3)(C(C)C)C(=O)N12 [BROMOCRIPTINE]
Activity [2]: is not a substrate [-]

CCN(CC)CCN1C(=O)CN=C(c2ccccc2F)c2cc(Cl)ccc21 [FLURAZEPAM]
inhibition at 100 µM [15]: 22.6%
Activity [2]: is not a substrate [-]

OC(CCN1CCCCC1)(c1ccccc1)C1CC2C=CC1C2 (stereo not given) [BIPERIDEN]
Activity [16]: is not an inhibitor [-]
Activity [2]: is not a substrate [-]

C=CCN1CC[C@]23c4c5ccc(O)c4O[C@H]2C(=O)CC[C@@]3(O)[C@H]1C5 [NALOXONE]
Activity [2]: is not a substrate [-]

CN(C)CCC=C1c2ccccc2COc2ccccc21 [DOXEPIN]
inhibition at 100 µM [17]: 15.3%
Activity [2]: is not a substrate [-]

NC(=O)N1c2ccccc2C=Cc2ccccc21 [CARBAMAZEPINE]
Activity [18]: is not an inhibitor [-]
Activity [2]: is not a substrate [-]

O=C1CC[C@@]2(O)[C@H]3Cc4ccc(O)c5c4[C@@]2(CCN3CC2CC2)[C@H]1O5 [NALTREXONE]
Activity [19]: is not an inhibitor [-]
Activity [2]: is not a substrate [-]

CN(C)CC/C=C1/c2ccccc2Sc2ccc(Cl)cc21 [CHLORPROTHIXENE]
inhibition at 100 µM [20]: 57.5%
Activity [2]: is not a substrate [-]

O=C1CN=C(c2ccccc2)c2cc(Cl)ccc2N1 [NORDAZEPAM]
Activity [2]: is not a substrate [-]
Activity [21]: is not an inhibitor [-]

COCCCC/C(=N\OCCN)c1ccc(C(F)(F)F)cc1 [FLUVOXAMINE]
inhibition at 100 µM [22]: 20.8%
Activity [2]: is not a substrate [-]

O=C(CCCN1CCC(O)(c2ccc(Cl)cc2)CC1)c1ccc(F)cc1 [HALOPERIDOL]
inhibition at 100 µM [23]: 37.2%
Activity [2]: is not a substrate [-]

CCCC(C)(COC(N)=O)COC(N)=O [MEPROBAMATE]
Activity [2]: is not a substrate [-]
Activity [24]: is not an inhibitor [-]
